# Data published in ChEMBL document CHEMBL2062458, “Cyclic heptapeptides, cordyheptapeptides C-E, from the marine-derived fungus Acremonium persicinum SCSIO 115 and their cytotoxic activities” (J Nat Prod, 2012).
# Peptide text beside a SMILES is read from it.
# Key:
# Type in all cases: functional, cell-based
# NCI-H460 = test: Cytotoxicity against human NCI-H460 cells after 72 hrs by sulforhodamine B assay; settings: NCI-H460, 72 h
# SF-268 = test: Cytotoxicity against human SF268 cells after 72 hrs by sulforhodamine B assay; settings: SF-268, 72 h
# MCF7 = test: Cytotoxicity against human MCF7 cells after 72 hrs by sulforhodamine B assay; settings: MCF7, 72 h
Structure (SMILES),IC50 (NCI-H460) [µM],IC50 (SF-268) [µM],IC50 (MCF7) [µM]
"CC(C)C[C@@H]1NC(=O)[C@H](C(C)C)NC(=O)[C@H](Cc2ccc(O)cc2)N(C)C(=O)[C@H](Cc2ccccc2)NC(=O)CN(C)C(=O)[C@@H]2CCCN2C(=O)[C@@H](Cc2ccccc2)N(C)C1=O [Cordyheptapeptide C] (HELM PEPTIDE1{F.[meY].V.L.[CN([C@H](Cc1ccccc1)C(=O)[*:2])[*:1]].P.[Sar]}$PEPTIDE1,PEPTIDE1,1:R1-7:R2$$$V2.0)",11.6,3.7,3
CC(C)C[C@@H]1NC(=O)[C@H](C(C)C)NC(=O)[C@H](Cc2ccc(O)cc2)N(C)C(=O)[C@H](Cc2ccccc2)NC(=O)CN(C)C(=O)[C@@H]2CCCN2C(=O)[C@@H](Cc2ccc(O)cc2)N(C)C1=O [Cordyheptapeptide D],> 100,45.6,82.7
CC[C@@H](C)[C@@H]1NC(=O)[C@H](Cc2ccc(O)cc2)N(C)C(=O)[C@H](Cc2ccccc2)NC(=O)CN(C)C(=O)[C@@H]2CCCN2C(=O)[C@@H](Cc2ccc(O)cc2)N(C)C(=O)[C@H](CC(C)C)NC1=O [Cordyheptapeptide E],4.5,3.2,2.7
